The nature of assay [1]: Antiproliferative activity against human GBM2 cells assessed as reduction in cell viability after 72 hrs by MTT assay. In kind it is functional, cell-based. The note with it: GBM2, 72 h. (Tetrazolium dyes change colour on reduction, which living cells bring about.)
The nature of assay [2]: Antiproliferative activity against human GBM95 cells assessed as reduction in cell viability after 72 hrs by MTT assay. In kind it is functional, cell-based.
The nature of assay [3]: Potency index, ratio of temozolomide IC50 to test compound IC50 for antiproliferative activity against human GBM2 cells. The class given is functional.
Assay [4] can be described thus: Potency index, ratio of temozolomide IC50 to test compound IC50 for antiproliferative activity against human GBM95 cells. In kind it is functional.
A further assay relates to MGC-803. Put plainly: Antiproliferative activity against human MGC803 cells by MTT assay. The class given is functional, cell-based.
Another assay concerns NCI-H460. Put plainly: Antiproliferative activity against human H460 cells by MTT assay. In kind it is functional, cell-based.
Another assay has as its system NCI-H1299. Put plainly: Antiproliferative activity against human H1299 cells by MTT assay. In kind it is functional, cell-based.
For the next assay, the system named is Ca-Ski. Put plainly: Antiproliferative activity against human CaSki cells by MTT assay. In kind it is functional, cell-based.
For the next assay, the system named is OVCAR-3. Put plainly: Antiproliferative activity against human OVCAR3 cells by SRB assay. The class given is functional. A general note: In SRB staining, fixed cells bind dye roughly in proportion to their protein.
For another assay, the system named is Caov-3 cell line. Put plainly: Antiproliferative activity against human Caov3 cells by SRB assay. The class given is functional.
In a further assay the test system is SK-OV-3. Put plainly: Antiproliferative activity against human SKOV3 cells by SRB assay. The class given is functional, cell-based.
Assay [5] has as its system MDA-MB-231. Put plainly: cells. The conditions noted are these: Homo sapiens.
Description: Antiproliferative activity against human MDA-MB-231 cells assessed as reduction in cell viability preincubated for 24 hrs under hypoxia condition further incubated for 72 hrs under normaxic condition by MTT assay
Assay [6] concerns MDA-MB-231. Put plainly: cells. The conditions noted are these: Homo sapiens, MDA-MB-231, 96 h.
Description: Antiproliferative activity against human MDA-MB-231 cells assessed as reduction in cell viability incubated for 96 hrs under normaxic condition by MTT assay
Assay [7] has as its system A549. Put plainly: Antiproliferative activity against human A549 cells. The class given is functional, cell-based.
A further assay deals with HepG2. Put plainly: Antiproliferative activity against human HepG2 cells. The class given is functional, cell-based.
The test system of assay [8] is HeLa. Put plainly: Antiproliferative activity against human HeLa cells. The class given is functional, cell-based.
For the next assay, the system named is MCF7. Put plainly: cells. The class given is functional, cell-based. The note with it: Homo sapiens.
The subject of assay [9] is A549. Put plainly: cells. In kind it is functional, cell-based. The conditions noted are these: Homo sapiens.
Description: Antiproliferative activity against human A549 cells by MTT assay
The test system of assay [10] is HeLa. Put plainly: Antiproliferative activity against human HeLa cells by MTT assay. The class given is functional, cell-based.
Another assay deals with DU-145. Put plainly: Antiproliferative activity against human DU145 cells by MTT assay. The class given is functional, cell-based.
A further assay relates to B16. Put plainly: Antiproliferative activity against mouse B16 cells by MTT assay. In kind it is functional, cell-based.

Description for MCF7: Antiproliferative activity against human MCF7 cells by MTT assay

In the case of `O=Cc1ccccc1-n1cc(COc2cccc(OCc3cn(-c4ccccc4C=O)nn3)c2)nn1`, the IC50 in assay [1] is 30.3 µM; in assay [2] it was 38.2 µM. Moreover, the figures for the “Ratio IC50” value in assay [3] and in [4] were 37.3 and 16.3, respectively.

Regarding `CO[C@H]1C[C@@H]2CC[C@@H](C)[C@@](O)(O2)C(=O)C(=O)N2CCCC[C@H]2C(=O)O[C@H]([C@H](C)C[C@@H]2CC[C@@H](OCCCn3cc(CNc4ccc(Cl)cc4Cl)nn3)[C@H](OC)C2)CC(=O)[C@H](C)/C=C(\C)[C@@H](O)[C@@H](OC)C(=O)[C@H](C)C[C@H](C)/C=C/C=C/C=C/1C`, the half-maximal inhibitory concentration (IC50) in the assay with MGC-803, with NCI-H460, with NCI-H1299 and in the assay with Ca-Ski was 6.05 to 25.9 µM each time.

Take `COc1cc(O)c2c(=O)cc(-c3ccc(OCc4cn(-c5ccccc5F)nn4)cc3)oc2c1`: the GI50 with OVCAR-3, in the assay with Caov-3 cell line and in the assay on SK-OV-3 was 10 to 20 µM in each case.

On to `COc1ccc(NC(=O)c2ccc(-n3cc(COc4cc(=O)oc5ccccc45)nn3)cc2)cc1OC`, for which the figures for the IC50 with MDA-MB-231 [5] and with MDA-MB-231 [6] were 0.03 µM and 1.34 µM, respectively.

`CCCCCCc1ccc(-c2cn(Cc3cc(=O)oc4cc(O)ccc34)nn2)cc1`: the IC50 with A549 [7], with HepG2 and in the assay on HeLa [8] was 8.73 to 9.16 µM throughout.

`CCc1ccc(-c2cn(CCNC3=C(C)C(=O)c4ccccc4C3=O)nn2)cc1`: the IC50 in the assay with MCF7, with A549 [9], in the assay on HeLa [10], with DU-145 and in the assay on B16 was 8.02 to 26.1 µM in each case.

For orientation: IC50 means the concentration that inhibits the measured activity by half. One may read the GI50 as the concentration that inhibits growth by half. A low value points to more potent growth inhibition.

For the origin of these results see ChEMBL document CHEMBL4342418, “1,2,3-Triazole-containing hybrids as potential anticancer agents: Current developments, action mechanisms and structure-activity relationships” (Eur J Med Chem, 2019).
